From patent publication US4344958A, “Method of inhibiting sickling of sickle erythrocytes using substituted-2-imidazolines” (priority 1980, dated 1982)

What was measured:
[1] = target: Hb-S (Homo sapiens, UniProt P68871+P69905, E7V); assay: Oxygen-Affinity Assay (whole Hb-S blood, tonometer); assay type: cell-based; set-up: key: ΔP50 in mm Hg (oxygen tension at 50% saturation, control vs treated); conditions: 37° C., difference control vs treated, negative = toward normal Hb-S oxygen affinity, oxygen partial pressure plotted in mm Hg
Protocol: The compounds described herein were tested in an "Oxygen-Affinity Assay" to measure the ability of the compound to influence the Hb-S oxygen affinity. There is a relationship between oxygen binding and Hb-S gelation and thus a measure of oxygen affinity is an index of Hb-S aggregation within the red blood cell. Hemoglobin S polymers decrease the overall oxygen affinity. Thus a return to normal of Hb-S oxygen affinity is a measure of decreased gelation. For measurements of oxygen equilibria whole Hb-S blood was equilibrated in a tonometer at 37° C. and measurements were made in the presence of a 5 millimolar (mM) or 10 mM concentration of the test compound. The whole blood pH, oxygen tension, and blood PO2 were measured. The percentage of oxygen saturation was plotted against the partial pressure of oxygen (mm Hg). The P50 value (oxygen tension at 50% saturation) was determined for each control and treated whole blood sample and the difference (Δ P50) between the control and treated whole blood sample noted. As used herein, a negative Δ P50 represents a change toward a normal Hb-S oxygen affinity and thus is a measure of the test compound's ability to inhibit the sickling of sickle erythrocytes.

[2] = compound and its pharmaceutically-acceptable salts; cited from earlier work
[3] = compound and its pharmaceutically-acceptable salts; cited from earlier work; remark: listed apart in the source
[4] = compound and its pharmaceutically-acceptable salts; cited from earlier work; remark: listed apart in the source
[5] = compound and its pharmaceutically-acceptable salts; cited from earlier work; remark: listed apart in the source
[6] = normal adults, single dosages 25 to 250 milligrams, cited from earlier work

Compound | Δ P50 ([1]; 5 mM test compound) | Δ P50 ([1]; 10 mM test compound) | also measured
Cl.Clc1ccc(NCC2=NCCN2)cc1Cl [Example 1, 2-((3,4-dichloroanilino)methyl)-2-imidazoline hydrochloride] | -9 | -12.6 | –
Clc1ccc(OCC2=NCCN2)cc1Cl [fenmetozole, 2-((3,4-Dichlorophenoxy)methyl)-2-imidazoline] | – | – | antidepressant activity [2]: antidepressant; barbiturate antagonist activity [3]: barbiturate antagonist activity; alcohol antagonist activity [4]: alcohol antagonist activity; activity against minimal brain dysfunction in children [5]: activity against minimal brain dysfunction in children
Cl.Cl.Nc1ccc(SCC2=NCCN2)cc1Cl [Example 4, 2-(((4-Amino-3-chlorophenyl)thio)methyl)-2-imidazoline Dihydrochloride] | -9 | -10.0 | –
Cl.Clc1ccc(OCC2=NCCN2)cc1Cl [Example 2, 2-((3,4-dichlorophenoxy)methyl)-2-imidazoline hydrochloride] | -8 | -8.0 | blood pressure ([6]; at high dose level): increased blood pressure; heart rate ([6]; at high dose level): decreased heart rate; ill effects [6]: no ill effects other than a "tingling sensation" on the skin reported by some of the subjects
Cl.Oc1ccc(SCC2=NCCN2)cc1Cl [Example 3, 2-Chloro-4-(((2-imidazolin-2-yl)methyl)thio)-phenol Hydrochloride] | 0 | -13.0 | –
